{
  "source": "ChEMBL document CHEMBL6182926",
  "about": "“Design, Synthesis, and Biological Activity Evaluation of Deuterated Diphenyl Azole Alcohol-Based CYP51 Inhibitors” (J Med Chem, 2025)",
  "key": {"Cryptococcus neoformans [1]": {"system": "Cryptococcus neoformans", "assay": "Antifungal activity against Cryptococcus neoformans CGMCC 2.3161 assessed as reduction in Eburicol at 0.0125 ug/ml measured after 18 hrs incubation by gas chromatography-mass spectrometry (GCMS) analysis", "format": "functional", "design": "scale not given: the % may be the effect or the level left", "settings": "dose 0.0125 µg/ml"}, "[2]": {"assay": "Tmax in Sprague-Dawley rat at 10 mg/kg, po by LC-MS/MS analysis", "format": "ADME, organism-based", "settings": "in vivo"}, "[3]": {"assay": "Subacute toxicity in ICR mouse assessed as structural alteration in kidney at 100 mg/kg, oral gavage for 14 consecutive days by hematoxylin-eosin (H/E) staining analysis", "format": "organism-based", "settings": "in vivo, 336 h, time 14 day"}, "Cryptococcus neoformans [4]": {"system": "Cryptococcus neoformans", "assay": "Antifungal activity against Cryptococcus neoformans CGMCC 2.3161 assessed as reduction in Lanosterol at 0.125 ug/ml measured after 18 hrs incubation by gas chromatography-mass spectrometry (GCMS) analysis", "format": "functional", "design": "scale not given: the % may be the effect or the level left", "settings": "dose 0.125 µg/ml"}, "[5]": {"assay": "Cmax in Sprague-Dawley rat at 10 mg/kg, po by LC-MS/MS analysis", "format": "ADME, organism-based", "settings": "in vivo"}, "[6]": {"assay": "AUC (0 to infinity) in Sprague-Dawley rat at 3 mg/kg, iv by LC-MS/MS analysis", "format": "ADME, organism-based", "settings": "in vivo"}, "Nakaseomyces glabratus [7]": {"system": "Nakaseomyces glabratus", "assay": "Fungicidal activity against Clinical isolate Candida glabrata assessed as concentration of colonies (< 5) measured after 48 hrs incubation", "format": "functional"}, "[8]": {"assay": "Toxicity in ICR mouse assessed as mortality at 500 mg/kg, po single dose measured for 7 days", "format": "organism-based", "settings": "in vivo, 168 h, time 7 day"}, "Cytochrome P450 3A4 [9]": {"target": "T1, Cytochrome P450 3A4 (Homo sapiens, UniProt P08684)", "T1 sequence (P08684 whole entry)": "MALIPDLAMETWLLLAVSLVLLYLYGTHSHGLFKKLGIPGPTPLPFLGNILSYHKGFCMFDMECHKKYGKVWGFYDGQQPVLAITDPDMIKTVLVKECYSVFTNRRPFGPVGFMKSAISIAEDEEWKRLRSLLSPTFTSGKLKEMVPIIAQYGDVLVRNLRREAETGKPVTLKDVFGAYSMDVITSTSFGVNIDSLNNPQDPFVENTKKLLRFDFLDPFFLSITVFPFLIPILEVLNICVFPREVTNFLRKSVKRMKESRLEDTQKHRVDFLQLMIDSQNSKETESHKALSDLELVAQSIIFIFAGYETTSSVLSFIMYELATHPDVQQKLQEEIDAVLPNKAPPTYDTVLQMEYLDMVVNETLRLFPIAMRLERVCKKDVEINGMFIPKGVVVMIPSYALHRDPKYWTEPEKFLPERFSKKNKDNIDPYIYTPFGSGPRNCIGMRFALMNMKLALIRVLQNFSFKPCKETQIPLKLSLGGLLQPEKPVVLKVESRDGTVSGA", "assay": "Inhibition of CYP3A4 in human liver microsomes using testosterone as substrate measured after 10 mins by LC/MS/MS analysis", "format": "ADME, Microsome"}, "Candida tropicalis": {"system": "Candida tropicalis", "assay": "Antifungal activity against Candida tropicalis CGMCC 2.3739 assessed as inhibition of visible growth", "format": "functional"}, "Cryptococcus neoformans [10]": {"system": "Cryptococcus neoformans", "assay": "Antifungal activity against Cryptococcus neoformans CGMCC 2.3161 assessed as reduction in ergosterol at 0.125 ug/ml measured after 18 hrs incubation by gas chromatography-mass spectrometry (GCMS) analysis (reference value: 94.48%)", "format": "functional", "design": "scale not given: the % may be the effect or the level left", "settings": "dose 0.125 µg/ml"}, "Cytochrome P450 1A2": {"target": "T2, Cytochrome P450 1A2 (Homo sapiens, UniProt P05177)", "T2 sequence (P05177 whole entry)": "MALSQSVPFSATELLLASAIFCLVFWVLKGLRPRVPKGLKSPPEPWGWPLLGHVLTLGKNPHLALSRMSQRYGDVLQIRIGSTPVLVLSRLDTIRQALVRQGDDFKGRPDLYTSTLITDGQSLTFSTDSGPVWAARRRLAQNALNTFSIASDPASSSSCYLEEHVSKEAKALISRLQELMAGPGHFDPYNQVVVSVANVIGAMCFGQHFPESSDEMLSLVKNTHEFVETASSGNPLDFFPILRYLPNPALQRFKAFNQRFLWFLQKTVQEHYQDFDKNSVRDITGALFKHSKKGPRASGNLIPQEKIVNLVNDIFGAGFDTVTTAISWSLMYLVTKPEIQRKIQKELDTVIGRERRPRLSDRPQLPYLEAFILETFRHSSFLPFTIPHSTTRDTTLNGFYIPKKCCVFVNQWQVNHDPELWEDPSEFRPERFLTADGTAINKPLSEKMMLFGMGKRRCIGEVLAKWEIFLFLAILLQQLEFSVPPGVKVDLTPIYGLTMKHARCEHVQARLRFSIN", "assay": "Inhibition of CYP1A2 in human liver microsomes using phenacetin as substrate measured after 10 mins by LC/MS/MS analysis", "format": "ADME, Microsome"}, "[11]": {"assay": "Selectivity ratio, ratio of IC50 for cytotoxicity against human SH-SY5Y cells to MIC80 for antifungal activity against Candida tropicalis CGMCC 2.3739", "format": "toxicity, cell-based"}, "Candida parapsilosis": {"system": "Candida parapsilosis", "assay": "Antifungal activity against Candida parapsilosis GIM 2.190 assessed as inhibition of visible growth", "format": "functional", "settings": "Lodderomyces parapsilosis"}, "[12]": {"assay": "Toxicity in ICR mouse assessed as change in body weight at 500 mg/kg, po single dose measured for 7 days", "format": "organism-based", "settings": "in vivo, 168 h, time 7 day"}, "Candida albicans [13]": {"system": "Candida albicans", "assay": "Antifungal activity against Candida albicans SC5314 assessed as reduction in Eburicol at 0.05 ug/ml measured after 18 hrs incubation by gas chromatography-mass spectrometry (GCMS) analysis", "format": "functional", "design": "scale not given: the % may be the effect or the level left", "settings": "dose 0.05 µg/ml"}, "Nakaseomyces glabratus [14]": {"system": "Nakaseomyces glabratus", "assay": "Antifungal activity against Clinical isolate Candida glabrata assessed as inhibition of visible growth", "format": "functional"}, "[15]": {"assay": "Toxicity in ICR mouse assessed as structural alteration in kidney at 500 mg/kg, po single dose measured for 7 days by hematoxylin-eosin (H/E) staining analysis", "format": "organism-based", "settings": "in vivo, 168 h, time 7 day"}, "Pichia kudriavzevii": {"system": "Pichia kudriavzevii", "assay": "Fungicidal index, ratio of MFC for fungicidal activity against Candida krusei AS 2.1045 to MIC80 for antifungal activity against Candida krusei AS 2.1045", "format": "functional"}, "Nakaseomyces glabratus [16]": {"system": "Nakaseomyces glabratus", "assay": "Fungicidal index, ratio of MFC for fungicidal activity against Clinical isolate Candida glabrata to MIC80 for antifungal activity against Clinical isolate Candida glabrata", "format": "functional"}, "[17]": {"assay": "Subacute toxicity in ICR mouse assessed as structural alteration in liver at 100 mg/kg, oral gavage for 14 consecutive days by hematoxylin-eosin (H/E) staining analysis", "format": "organism-based", "settings": "in vivo, 336 h, time 14 day"}, "[18]": {"assay": "Subacute toxicity in ICR mouse assessed as mortality at 100 mg/kg, oral gavage for 14 consecutive days", "format": "organism-based", "settings": "in vivo, 336 h, time 14 day"}, "Cryptococcus neoformans [19]": {"system": "Cryptococcus neoformans", "assay": "Inhibition of biofilm formation in Cryptococcus neoformans CGMCC 2.3161 assessed as inhibition of metabolic activity of biofilm measured after 24 hrs by XTT assay", "format": "functional"}, "[20]": {"assay": "Selectivity ratio, ratio of IC50 for cytotoxicity against human SH-SY5Y cells to MIC80 for antifungal activity against Candida albicans SC 5314", "format": "toxicity, cell-based"}, "Candida albicans [21]": {"system": "Candida albicans", "assay": "Antifungal activity against Candida albicans SC5314 assessed as reduction in 14alpha-methylsterols at 0.05 ug/ml measured after 18 hrs incubation by gas chromatography-mass spectrometry (GCMS) analysis (reference value: 0.69%)", "format": "functional", "design": "scale not given: the % may be the effect or the level left", "settings": "dose 0.05 µg/ml"}, "[22]": {"assay": "Selectivity ratio, ratio of IC50 for cytotoxicity against human SH-SY5Y cells to MIC80 for antifungal activity against Clinical isolate Candida glabrata", "format": "toxicity, cell-based"}, "[23]": {"assay": "Selectivity ratio, ratio of IC50 for cytotoxicity against human SH-SY5Y cells to MIC80 for antifungal activity against Candida parapsilosis GIM 2.190", "format": "toxicity, cell-based"}, "Cryptococcus neoformans [24]": {"system": "Cryptococcus neoformans", "assay": "Antifungal activity against Cryptococcus neoformans CGMCC 2.3161 assessed as reduction in other sterol at 0.0125 ug/ml measured after 18 hrs incubation by gas chromatography-mass spectrometry (GCMS) analysis (reference value: 2.20%)", "format": "functional", "design": "scale not given: the % may be the effect or the level left", "settings": "dose 0.0125 µg/ml"}, "Candida albicans [25]": {"system": "Candida albicans", "assay": "Antifungal activity against Candida albicans SC5314 assessed as reduction in Obtusifoliol at 0.05 ug/ml measured after 18 hrs incubation by gas chromatography-mass spectrometry (GCMS) analysis", "format": "functional", "design": "scale not given: the % may be the effect or the level left", "settings": "dose 0.05 µg/ml"}, "Candida albicans [26]": {"system": "Candida albicans", "assay": "Antifungal activity against Candida albicans SC5314 assessed as reduction in ergosterol at 0.05 ug/ml measured after 18 hrs incubation by gas chromatography-mass spectrometry (GCMS) analysis (reference value: 96.72%)", "format": "functional", "design": "scale not given: the % may be the effect or the level left", "settings": "dose 0.05 µg/ml"}, "[27]": {"assay": "Cytotoxicity against human SH-SY5Y cells measured after 72 hrs by MTT assay", "format": "toxicity, cell-based"}, "[28]": {"assay": "Oral bioavailability in Sprague-Dawley rat at 10 mg/kg by LC-MS/MS analysis", "format": "ADME, organism-based", "settings": "in vivo"}, "Cytochrome P450 3A4 [29]": {"target": "T1, Cytochrome P450 3A4", "assay": "Inhibition of CYP3A4 in human liver microsomes using midazolam as substrate measured after 10 mins by LC/MS/MS analysis", "format": "ADME, Microsome"}, "[30]": {"assay": "Tmax in Sprague-Dawley rat at 3 mg/kg, iv by LC-MS/MS analysis", "format": "ADME, organism-based", "settings": "in vivo"}},
  "data": [
    {"smiles": "[2H]C([2H])([2H])N(Cc1ccc(-c2ccc(OC(F)(F)F)cc2)cc1)[C@H](C)[C@](O)(Cn1cncn1)c1ccc(F)cc1F", "values": [
      {"measurement": "Activity", "setting": "Cryptococcus neoformans [1]", "result": 11.59, "unit": "%"},
      {"measurement": "Tmax", "setting": "[2]", "result": 2.67, "unit": "h"},
      {"measurement": "Activity", "setting": "[3]", "result": "Non-toxic"},
      {"measurement": "Activity", "setting": "Cryptococcus neoformans [4]", "result": 6.14, "unit": "%"},
      {"measurement": "Cmax", "setting": "[5]", "result": 601, "unit": "ng/mL"},
      {"measurement": "AUC", "setting": "[6]", "result": 2286, "unit": "ng·h/mL"},
      {"measurement": "MFC", "setting": "Nakaseomyces glabratus [7]", "result": 0.5, "unit": "µg/mL"},
      {"measurement": "Activity", "setting": "[8]", "result": "Non-toxic"},
      {"measurement": "IC50", "setting": "Cytochrome P450 3A4 [9]", "result": 5.11, "unit": "µM"},
      {"measurement": "MIC80", "setting": "Candida tropicalis", "result": 0.006, "unit": "µg/mL"},
      {"measurement": "Activity", "setting": "Cryptococcus neoformans [10]", "result": 5.68, "unit": "%"},
      {"measurement": "IC50", "setting": "Cytochrome P450 1A2", "result": "> 10", "unit": "µM"},
      {"measurement": "selectivity ratio", "setting": "[11]", "result": "> 100"},
      {"measurement": "MIC80", "setting": "Candida parapsilosis", "result": 0.006, "unit": "µg/mL"},
      {"measurement": "Activity", "setting": "[12]", "result": "Non-toxic"},
      {"measurement": "Activity", "setting": "Candida albicans [13]", "result": 46.42, "unit": "%"},
      {"measurement": "MIC80", "setting": "Nakaseomyces glabratus [14]", "result": 0.012, "unit": "µg/mL"},
      {"measurement": "Activity", "setting": "[15]", "result": "Non-toxic"},
      {"measurement": "Activity_index", "setting": "Pichia kudriavzevii", "result": 10},
      {"measurement": "Activity_index", "setting": "Nakaseomyces glabratus [16]", "result": 40},
      {"measurement": "Activity", "setting": "[17]", "result": "Non-toxic"},
      {"measurement": "Activity", "setting": "[18]", "result": "Non-toxic"},
      {"measurement": "MIC50", "setting": "Cryptococcus neoformans [19]", "result": 16, "unit": "µg/mL"},
      {"measurement": "selectivity ratio", "setting": "[20]", "result": "> 100"},
      {"measurement": "Activity", "setting": "Candida albicans [21]", "result": 7.73, "unit": "%"},
      {"measurement": "selectivity ratio", "setting": "[22]", "result": "> 100"},
      {"measurement": "selectivity ratio", "setting": "[23]", "result": "> 100"},
      {"measurement": "Activity", "setting": "Cryptococcus neoformans [24]", "result": 8.38, "unit": "%"},
      {"measurement": "Activity", "setting": "Candida albicans [25]", "result": 18, "unit": "%"},
      {"measurement": "Activity", "setting": "Candida albicans [26]", "result": 3.68, "unit": "%"},
      {"measurement": "IC50 at 72 h", "setting": "[27]", "result": 25.2, "unit": "µM"},
      {"measurement": "bioavailability", "setting": "[28]", "result": 63.4, "unit": "%"},
      {"measurement": "IC50", "setting": "Cytochrome P450 3A4 [29]", "result": 6.62, "unit": "µM"},
      {"measurement": "Tmax", "setting": "[30]", "result": 4.98, "unit": "min"}
    ]}
  ]
}
